Experimental findings from US4894388A, “Glycosidase inhibitors and use thereof” (priority 1988, dated 1990) are described below.

Common to all, as to assay type: biochemical
One assay has as its target T1, α-L-fucosidase (Homo sapiens, UniProt P04066).
T1 construct: The glycosidase activities in an extract of normal human liver were assayed; from tissue; host or cells: post mortem human liver, 37,000 g supernatant
T1 sequence (P04066 32-466): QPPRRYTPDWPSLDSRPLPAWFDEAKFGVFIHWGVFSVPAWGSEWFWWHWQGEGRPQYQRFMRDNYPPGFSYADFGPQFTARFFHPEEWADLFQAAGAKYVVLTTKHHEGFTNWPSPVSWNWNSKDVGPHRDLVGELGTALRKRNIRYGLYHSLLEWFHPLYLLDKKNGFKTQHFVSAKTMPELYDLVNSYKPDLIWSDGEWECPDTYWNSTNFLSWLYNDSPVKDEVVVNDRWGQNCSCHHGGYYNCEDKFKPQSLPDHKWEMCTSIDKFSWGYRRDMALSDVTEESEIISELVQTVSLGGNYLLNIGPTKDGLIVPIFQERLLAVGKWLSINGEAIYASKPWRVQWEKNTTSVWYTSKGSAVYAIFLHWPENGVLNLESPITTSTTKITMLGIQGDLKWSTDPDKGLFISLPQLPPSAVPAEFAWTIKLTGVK
The assay can be described thus: Inhibition of α-L-fucosidase in human liver extract. The following applies: for inhibition at 1000 µM: 1 mM inhibitor, 0.5 mM substrate, optimal pH, mean of 2-4 determinations. Here is the method:
The fraction of activity lost in the presence of the inhibitor was calculated for each pH; =α-L-fucosidase activity; o=inhibition (%).
(§1) Post mortem human liver, which had been stored at -20° C. until required was homogenized in deionized water (50%, w/v) in a Potter-Elvehjem homogenizer and then centrifuged at 37,000 g for 30 min in an MSE 18 centrifuge. The resultant supernatant was used as the source of enzymic activities.
(§2) The glycosidase activities in an extract of normal human liver were assayed by using the appropriate fluorigenic 4-methylumbelliferyl glycoside substrate (Koch-Light, Haverhill, Suffolk, U.K.) with a concentration of 0.5 mM at the optimal pH of each enzyme [Burditt et al., Clin. Chim. Acta 140, 201-209 (1980)]. Human liver acidic (lysomal) and neutral (cystosolic) α-D-mannosidases were assayed similarly at their pH-optima, of 4.0 and 6.5, respectively, after separation by affinity chromatography on concanavalin A-Sepharose® (Pharmacia Ltd, Milton Keynes, Bucks, U.K.) [Phillips et al., Biochem. J. 153, 579-587 (1976)]. The residual intermediate (Golgi) α-mannosidase II activity in extracts of fibroblasts from a patient with the lysosomal storage disease, mannosidosis, was assayed at pH 5.75 using the synthetic substrate (Burditt et al, Ibid.). The specificity of the inhibitors was determined by assaying the glycosidases in the presence and absence of a 1 mM solution of each compound. The nature of the inhibition and the value of Ki were determined using the Dixon graphical procedure.
(§3) Enzymic activities were measured in the presence and absence of 1 mM inhibitor. Inhibition (%) was calculated as the fraction of activity lost in the presence of inhibitor. The values are means of two to four independent determinations.

The next assay relates to N-acetyl hexosaminidase. As to the kind of experiment: Inhibition of N-acetyl hexosaminidase in human liver extract. The following applies: 1 mM inhibitor; 0.5 mM substrate; optimal pH; mean of 2-4 determinations. As for the experimental part: as §1, §2, §3
Assay [1] addresses T2, lysosomal (acidic) α-D-mannosidase (Homo sapiens, UniProt O00754).
T2 construct: Post mortem human liver, which had been stored at -20° C; from tissue; host or cells: post mortem human liver, 37,000 g supernatant; concanavalin A-Sepharose fraction
T2 sequence (O00754 50-1011): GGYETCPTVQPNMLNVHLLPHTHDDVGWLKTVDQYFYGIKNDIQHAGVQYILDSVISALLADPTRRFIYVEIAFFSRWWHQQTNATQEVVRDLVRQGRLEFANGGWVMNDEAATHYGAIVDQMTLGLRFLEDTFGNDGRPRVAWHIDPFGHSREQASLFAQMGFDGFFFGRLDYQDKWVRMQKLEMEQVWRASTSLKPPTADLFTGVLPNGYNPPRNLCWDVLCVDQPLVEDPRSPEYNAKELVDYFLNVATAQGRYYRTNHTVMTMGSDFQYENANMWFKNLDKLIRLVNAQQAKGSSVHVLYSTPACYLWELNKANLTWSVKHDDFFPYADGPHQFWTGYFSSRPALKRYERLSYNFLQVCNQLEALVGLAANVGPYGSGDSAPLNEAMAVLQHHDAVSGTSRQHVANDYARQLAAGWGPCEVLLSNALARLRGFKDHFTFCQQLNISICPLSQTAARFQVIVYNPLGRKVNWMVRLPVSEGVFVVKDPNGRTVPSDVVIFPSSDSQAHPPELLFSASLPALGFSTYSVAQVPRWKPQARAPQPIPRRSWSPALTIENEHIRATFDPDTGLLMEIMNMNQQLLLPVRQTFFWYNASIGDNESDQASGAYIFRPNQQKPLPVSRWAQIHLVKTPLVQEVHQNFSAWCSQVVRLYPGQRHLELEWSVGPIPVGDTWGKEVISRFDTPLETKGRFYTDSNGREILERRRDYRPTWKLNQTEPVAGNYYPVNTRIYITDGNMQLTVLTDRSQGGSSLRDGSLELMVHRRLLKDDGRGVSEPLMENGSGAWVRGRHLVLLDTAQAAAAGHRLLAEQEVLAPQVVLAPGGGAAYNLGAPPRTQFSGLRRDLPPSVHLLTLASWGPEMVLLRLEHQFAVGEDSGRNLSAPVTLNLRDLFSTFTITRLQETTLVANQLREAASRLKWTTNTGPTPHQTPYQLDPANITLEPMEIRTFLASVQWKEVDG
The assay can be described thus: Inhibition of lysosomal (acidic) α-D-mannosidase, fluorigenic 4-methylumbelliferyl glycoside substrate. The following applies: for inhibition at 1000 µM: 1 mM inhibitor, 0.5 mM substrate, pH 4.0, mean of 2-4 determinations. As for the experimental part:
as §1, §2, §3

As to `CN1C[C@@H](O)[C@@H](O)[C@@H]1[C@@H](O)CO` [N-methyl DIA, N-methyl-1,4-dideoxy-1,4-imino-L-allitol], the inhibition at 1000 µM against α-L-fucosidase turned out to be 28%; in assay [1], 13%. For the same compound, the “Inhibition (%)” value with N-acetyl hexosaminidase worked out at 37%.

Regarding `OC[C@H](O)[C@H]1[C@H](O)[C@H](O)CN1Cc1ccccc1` [N-benzyl DIA, N-benzyl-1,4-dideoxy-1,4-imino-L-allitol], the inhibition at 1000 µM against α-L-fucosidase was found to be 74%; in assay [1], 3%. For the same compound, the “nature of the inhibition” value on α-L-fucosidase (Dixon graphical procedure) is “competitive”. For the same compound, the pH-dependence of inhibition entry at α-L-fucosidase (FIG. 1) is on record as “pH-dependent”. At α-L-fucosidase (pH 5.5, Dixon graphical procedure), this compound gave an inhibition constant (Ki) of 50 µM. In addition, the “Inhibition (%)” value with N-acetyl hexosaminidase stood at 15%.

Consider `OC[C@H](O)[C@@H]1NC[C@@H](O)[C@H]1O` [DIA, 1,4-dideoxy-1,4-imino-L-allitol], for which, at α-L-fucosidase, the inhibition at 1000 µM amounted to 60%. For the same compound, the “Inhibition (%)” value in the assay with N-acetyl hexosaminidase is 42%. Besides, in assay [1], the “inhibition of lysosomal α-D-mannosidase (in words)” value was “good inhibitor” and at 1000 µM the inhibition was 84%. Also, in assay [1] (pH optimum of 4.0, Dixon graphical procedure), the Ki is 170 µM.

A word on the inhibition: it is the percentage by which the read-out fell short of the control. A high value points to a response far below the control. Usually Ki stands for the equilibrium dissociation constant of an inhibitor or competing ligand from its target. A higher Ki goes with a looser hold on the target.
